Laboratory results as given in ChEMBL document CHEMBL1201861, “Genomics of Drug Sensitity in Cancer screening data, Wellcome Trust Sanger Institute”.

Columns and labels:
Experiment in all cases: cells
CaR-1 = type: functional, cell-based, Homo sapiens; settings: Homo sapiens, CaR-1;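 further: growth inhibition of human CaR-1 cancer cells, read out with a cell viability assay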
Description: SANGER: Inhibition of human CaR-1 cell growth in a cell viability assay.

D-336MG = type: functional, cell-based, Homo sapiens; settings: Homo sapiens, D-336MG
Description: SANGER: Inhibition of human D-336MG cell growth in a cell viability assay.

D-542MG = type: functional, cell-based, Homo sapiens; settings: Homo sapiens, D-542MG
Description: SANGER: Inhibition of human D-542MG cell growth in a cell viability assay.

G-401 = type: functional, cell-based, Homo sapiens; settings: Homo sapiens, G-401
Description: SANGER: Inhibition of human G-401 cell growth in a cell viability assay.

GMS-10 = type: functional, cell-based, Homo sapiens; settings: Homo sapiens, GMS-10;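 further: growth inhibition of GMS-10 cells, read out as cell viability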
Description: SANGER: Inhibition of human GMS-10 cell growth in a cell viability assay.

HCC1937 = type: functional, cell-based, Homo sapiens; settings: Homo sapiens, HCC1937;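 further: growth inhibition measured with a cell viability read-out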
Description: SANGER: Inhibition of human HCC1937 cell growth in a cell viability assay.

HT1197 = type: functional, cell-based, Homo sapiens, HT-1197; settings: Homo sapiens, HT1197
Description: SANGER: Inhibition of human HT-1197 cell growth in a cell viability assay.

HTC-C3 = type: functional, cell-based, Homo sapiens; settings: Homo sapiens, HTC-C3;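 further: inhibition of cell growth, read out with a cell viability assay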
Description: SANGER: Inhibition of human HTC-C3 cell growth in a cell viability assay.

KU-19-19 = type: functional, cell-based, Homo sapiens; settings: Homo sapiens, KU-19-19
Description: SANGER: Inhibition of human KU-19-19 cell growth in a cell viability assay.

KYSE-410 = type: functional, cell-based, Homo sapiens; settings: Homo sapiens, KYSE-410;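 further: growth inhibition of KYSE-410 cells, measured through a cell viability readout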
Description: SANGER: Inhibition of human KYSE-410 cell growth in a cell viability assay.

MC-IXC = type: functional, cell-based, Homo sapiens; settings: Homo sapiens, MC-IXC;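 further: growth inhibition of MC-IXC cells, read out with a cell viability assay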
Description: SANGER: Inhibition of human MC-IXC cell growth in a cell viability assay.

MEL-JUSO = type: functional, cell-based, Homo sapiens; settings: Homo sapiens, MEL-JUSO;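 further: growth inhibition of human MEL-JUSO cells, read out with a cell viability assay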
Description: SANGER: Inhibition of human MEL-JUSO cell growth in a cell viability assay.

MKN-1 = type: functional, cell-based, Homo sapiens; settings: Homo sapiens, MKN-1;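 further: growth inhibition of human MKN1 cells, read out by a cell viability measurement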
Description: SANGER: Inhibition of human MKN1 cell growth in a cell viability assay.

MeWo = type: functional, cell-based, Homo sapiens; settings: Homo sapiens, MeWo;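 further: growth inhibition of MeWo cells, determined by a cell viability readout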
Description: SANGER: Inhibition of human Mewo cell growth in a cell viability assay.

NCI-H1048 = type: functional, cell-based, Homo sapiens; settings: Homo sapiens, NCI-H1048;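 further: growth inhibition of human NCI-H1048 cells, read out with a cell viability assay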
Description: SANGER: Inhibition of human NCI-H1048 cell growth in a cell viability assay.

NCI-H1792 = type: functional, cell-based, Homo sapiens; settings: Homo sapiens, NCI-H1792;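 further: growth inhibition of human NCI-H1792 cells, read out as cell viability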
Description: SANGER: Inhibition of human NCI-H1792 cell growth in a cell viability assay.

NCI-H2009 = type: functional, cell-based, Homo sapiens; settings: Homo sapiens, NCI-H2009;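 further: cell viability assay measuring inhibition of NCI-H2009 cell growth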
Description: SANGER: Inhibition of human NCI-H2009 cell growth in a cell viability assay.

NCI-H441 = type: functional, cell-based, Homo sapiens; settings: Homo sapiens, NCI-H441;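 further: growth inhibition of NCI-H441 cells, read out with a cell viability assay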
Description: SANGER: Inhibition of human NCI-H441 cell growth in a cell viability assay.

OAW-28 = type: functional, cell-based, Homo sapiens; settings: Homo sapiens, OAW-28;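 further: growth inhibition of OAW-28 cells, read out with a cell viability assay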
Description: SANGER: Inhibition of human OAW-28 cell growth in a cell viability assay.

PANC-08-13 = type: functional, cell-based, Homo sapiens; settings: Homo sapiens, PANC-08-13;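 further: cell growth inhibition, measured with a cell viability assay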
Description: SANGER: Inhibition of human PANC-08-13 cell growth in a cell viability assay.

RPMI-2650 = type: functional, cell-based, Homo sapiens; settings: Homo sapiens, RPMI-2650
Description: SANGER: Inhibition of human RPMI-2650 cell growth in a cell viability assay.

SBC-5 = type: functional, cell-based, Homo sapiens; settings: Homo sapiens, SBC-5;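 further: cell viability assay read-out, IC50 is the concentration that inhibits growth of the cells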
Description: SANGER: Inhibition of human SBC-5 cell growth in a cell viability assay.

SK-LU-1 = type: functional, cell-based, Homo sapiens; settings: Homo sapiens, SK-LU-1;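 further: cell viability assay measuring growth inhibition of human SK-LU-1 cells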
Description: SANGER: Inhibition of human SK-LU-1 cell growth in a cell viability assay.

SK-MEL-30 = type: functional, cell-based, Homo sapiens; settings: Homo sapiens, SK-MEL-30;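 further: growth inhibition of SK-MEL-30 cells, determined with a cell viability assay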
Description: SANGER: Inhibition of human SK-MEL-30 cell growth in a cell viability assay.

SW48 = type: functional, cell-based, Homo sapiens; settings: Homo sapiens, SW48;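 further: growth inhibition of SW48 cells, read out with a cell viability assay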
Description: SANGER: Inhibition of human SW48 cell growth in a cell viability assay.

SW756 = type: functional, cell-based, Homo sapiens; settings: Homo sapiens, SW756;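 further: growth inhibition of human SW756 cells, read out with a cell viability assay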
Description: SANGER: Inhibition of human SW756 cell growth in a cell viability assay.

T84 = type: functional, cell-based, Homo sapiens; settings: Homo sapiens, T84;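 further: growth inhibition measured with a cell viability readout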
Description: SANGER: Inhibition of human T84 cell growth in a cell viability assay.

T98G = type: functional, cell-based, Homo sapiens; settings: Homo sapiens, T98G;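 further: growth inhibition of T98G cells, read out by a cell viability assay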
Description: SANGER: Inhibition of human T98G cell growth in a cell viability assay.

23132-87 = type: functional, cell-based, Homo sapiens; settings: Homo sapiens
Description: SANGER: Inhibition of human 23132-87 cell growth in a cell viability assay.

647-V = type: functional, cell-based, Homo sapiens; settings: Homo sapiens, 647-V;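 further: growth inhibition of 647-V cells, read out with a cell viability assay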
Description: SANGER: Inhibition of human 647-V cell growth in a cell viability assay.

A2780 = type: functional, cell-based, Homo sapiens; settings: Homo sapiens, A2780;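 further: growth inhibition of A2780 cells, read out with a cell viability assay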
Description: SANGER: Inhibition of human A2780 cell growth in a cell viability assay.

ASPC1 = type: functional, cell-based, Homo sapiens; settings: Homo sapiens, ASPC1;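 further: growth inhibition of AsPC-1 cells, read out with a cell viability assay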
Description: SANGER: Inhibition of human AsPC-1 cell growth in a cell viability assay.

BPH-1 = type: functional, cell-based, Homo sapiens; settings: Homo sapiens, BPH-1;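 further: cell viability assay measuring growth inhibition of human BPH-1 cells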
Description: SANGER: Inhibition of human BPH-1 cell growth in a cell viability assay.

CAL-120 = type: functional, cell-based, Homo sapiens; settings: Homo sapiens, CAL-120;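 further: cell growth inhibition, read out as cell viability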
Description: SANGER: Inhibition of human CAL-120 cell growth in a cell viability assay.

UO-31 = type: functional, cell-based, Homo sapiens; settings: Homo sapiens, UO-31;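 further: cell viability assay measuring inhibition of cell growth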
Description: SANGER: Inhibition of human U031 cell growth in a cell viability assay.

UACC-62 = type: functional, cell-based, Homo sapiens; settings: Homo sapiens, UACC-62;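 further: growth inhibition of human UACC-62 cells, read out by a cell viability assay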
Description: SANGER: Inhibition of human UACC-62 cell growth in a cell viability assay.

UMUC3 = type: functional, cell-based, Homo sapiens; settings: Homo sapiens, UMUC3;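 further: growth inhibition of human UM-UC-3 cells, read out with a cell viability assay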
Description: SANGER: Inhibition of human UM-UC-3 cell growth in a cell viability assay.

VM-CUB-1 = type: functional, cell-based, Homo sapiens; settings: Homo sapiens, VM-CUB-1;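 further: cell viability assay measuring growth inhibition of the human VM-CUB-1 cell line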
Description: SANGER: Inhibition of human VM-CUB-1 cell growth in a cell viability assay.

YH-13 = type: functional, cell-based, Homo sapiens; settings: Homo sapiens, YH-13;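 further: cell viability readout of growth suppression in the human YH-13 cell line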
Description: SANGER: Inhibition of human YH-13 cell growth in a cell viability assay.

ZR-75-30 = type: functional, cell-based, Homo sapiens; settings: Homo sapiens, ZR-75-30;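 further: growth inhibition of ZR-75-30 cells, measured with a cell viability readout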
Description: SANGER: Inhibition of human ZR-75-30 cell growth in a cell viability assay.

CHP-212 = type: functional, cell-based, Homo sapiens; settings: Homo sapiens, CHP-212
Description: SANGER: Inhibition of human CHP-212 cell growth in a cell viability assay.

MOLT-13 = type: functional, cell-based, Homo sapiens; settings: Homo sapiens, MOLT-13;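 further: IC50 for suppression of MOLT-13 cell growth, read out with a cell viability assay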
Description: SANGER: Inhibition of human MOLT-13 cell growth in a cell viability assay.

`CS(=O)(=O)c1ccc(C(=O)Nc2ccc(Cl)c(-c3ccccn3)c2)c(Cl)c1` [VISMODEGIB] was tested, and the IC50 (CaR-1) was > 10 µM, the IC50 (D-336MG) was > 10 µM and the IC50 (D-542MG) was 1.87 µM. The IC50 (G-401) was > 10 µM, the IC50 (GMS-10) was > 10 µM and the IC50 (HCC1937) was > 10 µM. The IC50 (HT1197) was > 10 µM, the IC50 (HTC-C3) was > 10 µM and the IC50 (KU-19-19) was > 10 µM. The IC50 (KYSE-410) was > 10 µM, the IC50 (MC-IXC) was > 10 µM and the IC50 (MEL-JUSO) was > 10 µM. The IC50 (MKN-1) was > 10 µM, the IC50 (MeWo) was > 10 µM and the IC50 (NCI-H1048) was > 10 µM. For the same compound, the IC50 (NCI-H1792) was > 10 µM, the IC50 (NCI-H2009) was > 10 µM and the IC50 (NCI-H441) was > 10 µM. The IC50 (OAW-28) was > 10 µM, the IC50 (PANC-08-13) was > 10 µM and the IC50 (RPMI-2650) was > 10 µM. The IC50 (SBC-5) was > 10 µM, the IC50 (SK-LU-1) was > 10 µM and the IC50 (SK-MEL-30) was > 10 µM. For the same compound, the IC50 (SW48) was > 10 µM, the IC50 (SW756) was > 10 µM and the IC50 (T84) was > 10 µM. For the same compound, the IC50 (T98G) was > 10 µM, the IC50 (23132-87) was 4.4 µM and the IC50 (647-V) was > 10 µM. For the same compound, the IC50 (A2780) was > 10 µM, the IC50 (ASPC1) was > 10 µM and the IC50 (BPH-1) was > 10 µM. For the same compound, the IC50 (CAL-120) was > 10 µM, the IC50 (UO-31) was > 10 µM and the IC50 (UACC-62) was > 10 µM. The IC50 (UMUC3) was > 10 µM, the IC50 (VM-CUB-1) was > 10 µM and the IC50 (YH-13) was > 10 µM. For the same compound, the IC50 (ZR-75-30) was > 10 µM and the IC50 (CHP-212) was > 10 µM.

For `CN(C)C(=N)NC(=N)N` [METFORMIN], the IC50 (CaR-1) was > 20000 µM, the IC50 (G-401) was 1590 µM and the IC50 (GMS-10) was > 20000 µM. For the same compound, the IC50 (HCC1937) was > 20000 µM, the IC50 (HT1197) was > 20000 µM and the IC50 (HTC-C3) was > 20000 µM. For the same compound, the IC50 (KU-19-19) was 9610 µM, the IC50 (KYSE-410) was > 20000 µM and the IC50 (MC-IXC) was 7890 µM. The IC50 (MEL-JUSO) was 16000 µM, the IC50 (MOLT-13) was 556 µM and the IC50 (MeWo) was > 20000 µM. The IC50 (NCI-H1048) was > 20000 µM, the IC50 (NCI-H1792) was > 20000 µM and the IC50 (NCI-H441) was > 20000 µM. The IC50 (OAW-28) was > 20000 µM, the IC50 (PANC-08-13) was > 20000 µM and the IC50 (RPMI-2650) was > 20000 µM. For the same compound, the IC50 (SBC-5) was 17100 µM, the IC50 (SK-LU-1) was > 20000 µM and the IC50 (SK-MEL-30) was > 20000 µM. The IC50 (SW48) was > 20000 µM, the IC50 (SW756) was > 20000 µM and the IC50 (T98G) was > 20000 µM. The IC50 (23132-87) was 11200 µM, the IC50 (647-V) was > 20000 µM and the IC50 (A2780) was 4880 µM. The IC50 (ASPC1) was 5370 µM, the IC50 (UO-31) was > 20000 µM and the IC50 (UMUC3) was 12800 µM. The IC50 (YH-13) was > 20000 µM, the IC50 (ZR-75-30) was 14900 µM and the IC50 (CHP-212) was 9630 µM.

For `CC1(C)CNc2cc(NC(=O)c3cccnc3NCc3ccncc3)ccc21` [MOTESANIB], the IC50 (CaR-1) was > 2 µM, the IC50 (D-336MG) was > 2 µM and the IC50 (G-401) was > 2 µM. For the same compound, the IC50 (GMS-10) was > 2 µM, the IC50 (HCC1937) was > 2 µM and the IC50 (HT1197) was > 2 µM. The IC50 (HTC-C3) was > 2 µM, the IC50 (KU-19-19) was > 2 µM and the IC50 (KYSE-410) was > 2 µM. For the same compound, the IC50 (MC-IXC) was > 2 µM, the IC50 (MKN-1) was > 2 µM and the IC50 (MOLT-13) was > 2 µM. The IC50 (MeWo) was > 2 µM, the IC50 (NCI-H1048) was > 2 µM and the IC50 (NCI-H1792) was > 2 µM. For the same compound, the IC50 (NCI-H441) was > 2 µM, the IC50 (OAW-28) was > 2 µM and the IC50 (PANC-08-13) was > 2 µM. For the same compound, the IC50 (RPMI-2650) was > 2 µM, the IC50 (SBC-5) was > 2 µM and the IC50 (SK-LU-1) was > 2 µM. The IC50 (SK-MEL-30) was > 2 µM, the IC50 (SW48) was > 2 µM and the IC50 (SW756) was > 2 µM. For the same compound, the IC50 (T84) was > 2 µM, the IC50 (T98G) was > 2 µM and the IC50 (647-V) was > 2 µM. For the same compound, the IC50 (A2780) was > 2 µM, the IC50 (ASPC1) was > 2 µM and the IC50 (BPH-1) was > 2 µM. For the same compound, the IC50 (CAL-120) was > 2 µM, the IC50 (UO-31) was > 2 µM and the IC50 (UACC-62) was > 2 µM. For the same compound, the IC50 (UMUC3) was > 2 µM, the IC50 (VM-CUB-1) was > 2 µM and the IC50 (YH-13) was > 2 µM. For the same compound, the IC50 (ZR-75-30) was > 2 µM and the IC50 (CHP-212) was > 2 µM.

Compound `CC(C)c1ccccc1Cc1cc(C(=O)Nc2ccc(S(=O)(=O)c3ccccc3C(C)(C)C)cc2)c(O)c(O)c1O` has an IC50 (CaR-1) of 5.93 µM, an IC50 (D-336MG) of 0.958 µM and an IC50 (D-542MG) of 0.462 µM. It also gave an IC50 (G-401) of 0.46 µM, an IC50 (GMS-10) of 0.443 µM and an IC50 (HCC1937) of 1.64 µM. It also gave an IC50 (HT1197) of 5.95 µM, an IC50 (HTC-C3) of 1.58 µM and an IC50 (KU-19-19) of 0.44 µM. The IC50 (KYSE-410) was 0.877 µM, the IC50 (MC-IXC) was 0.0753 µM and the IC50 (MEL-JUSO) was 0.439 µM. The IC50 (MKN-1) was 0.623 µM, the IC50 (MeWo) was 0.484 µM and the IC50 (NCI-H1048) was 0.214 µM. For the same compound, the IC50 (NCI-H1792) was 0.69 µM, the IC50 (NCI-H2009) was 0.245 µM and the IC50 (NCI-H441) was 1.73 µM. It also gave an IC50 (OAW-28) of 0.294 µM, an IC50 (PANC-08-13) of 3.77 µM and an IC50 (RPMI-2650) of 0.238 µM. For the same compound, the IC50 (SBC-5) was 0.147 µM, the IC50 (SK-LU-1) was 0.711 µM and the IC50 (SK-MEL-30) was 0.038 µM. The IC50 (SW48) was 0.238 µM, the IC50 (SW756) was 0.112 µM and the IC50 (T84) was 13.9 µM. For the same compound, the IC50 (T98G) was 0.606 µM, the IC50 (23132-87) was 0.324 µM and the IC50 (647-V) was 0.0884 µM. The IC50 (A2780) was 0.218 µM, the IC50 (ASPC1) was 0.973 µM and the IC50 (BPH-1) was 0.286 µM. For the same compound, the IC50 (CAL-120) was 0.479 µM, the IC50 (UO-31) was 0.184 µM and the IC50 (UACC-62) was 0.0344 µM. For the same compound, the IC50 (UMUC3) was 0.163 µM, the IC50 (YH-13) was 0.0706 µM and the IC50 (ZR-75-30) was 1.42 µM. The IC50 (CHP-212) was 4.57 µM.
